Experimental data reported in publication PMC3027097 (Journal of Translational Medicine, 2011).

Experiments:
[1] = test system: ERK2 phosphorylation in EC; test: hFN-induced ERK2 phosphorylation, western blot, EC; assay type: cell-based; conditions: densitometry
Procedure: (§1) In vitro studies were performed on cell cultures of ECs or VSMCs, cultured in Dulbecco's modified Eagle's medium (DMEM; Sigma-Aldrich, Milan, Italy) as previously described and validated. Cell culture plates were filled with 10 μg/cm^2 of human fibronectin (hFN, Millipore®, Bedford, MA, USA) as described. All experiments were performed in triplicate with cells between passages 5 and 9.
(§2) Immunoblot analyses were performed as previously described and validated. Mouse monoclonal antibodies to extracellular signal regulated kinase (ERK2) and phospho-ERK, anti-rabbit VEGF and actin were from Santa Cruz Biotecnology (Santa Cruz, CA, USA). Levels of VEGF were determined using an antibody raised against VEGF-165 (Santa Cruz Biotechnology). Experiments were performed in triplicate to ensure reproducibility. Data are presented as arbitrary densitometry units (ADU) after normalization for the total corresponding protein or actin as internal control.

[2] = test system: bovine aortic endothelial cells (ECs); test: Endothelial Matrigel assay (tube formation); assay type: cell-based; conditions: hFN 100 μg/ml, peptides 10^-6 M, 37°C, mean ± SEM
Procedure: The formation of network-like structures by ECs on an extracellular matrix (ECM)-like 3D gel consisting of Matrigel® (BD Biosciences, Bedford, MA, USA), was performed as previously described and validated [27, 28]. The six-well multidishes were coated with growth factor-reduced Matrigel in according to the manufacturer's instructions. ECs (5×10^4) were seeded with c(RGDf[NMe]V) or RGDechiHCit (10^-6 M), in the absence (negative control) or presence (100 μg/ml) of hFN [24]. Cells were incubated at 37°C for 24h in 1 ml of DMEM. […] Network formation was observed using an inverted phase-contrast microscope (Zeiss). Representative fields were taken, and the average of the total number of complete tubes formed by cells was counted in 15 random fields by two independent investigators.

[3] = test system: bovine aortic endothelial cells (EC); test: hFN-induced cell proliferation assay (cell number), EC; assay type: cell-based
Procedure: as §1
(§3) Cell cultures were prepared as previously described. Briefly, cells were seeded at density of 100000 per well in six-well plates, serum starved, pre-incubated at 37°C for 30' with c(RGDf[NMe]V) or RGDechiHCit (10^-6 M). Proliferation was induced using hFN (100 μg/ml). Cell number was measured at 3, 6 and 20 h after stimulation as previously described.

[4] = test system: ERK2 phosphorylation in VSMC; test: hFN-induced ERK2 phosphorylation, western blot, VSMC; assay type: cell-based; conditions: densitometry
Procedure: as §1, §2

[5] = test system: vascular smooth muscle cells (VSMC); test: hFN-induced cell proliferation assay (cell number), VSMC; assay type: cell-based
Procedure: as §1, §3

[6] = test system: VEGF production in bovine aortic endothelial cells (ECs); test: VEGF quantification by western blot, EC; assay type: cell-based; conditions: 6 hours of stimulation with hFN, peptides 10^-6 M, mean ± SEM
Procedure: VEGF production was measured as previously described [26]. Briefly, ECs were seeded at a density of 600000 per well in six well plates, serum starved overnight, seeded with c(RGDf[NMe]V) or RGDechiHCit (10^-6 M) and then stimulated with hFN for 6 hours.
Immunoblot analyses were performed as previously described and validated [23, 28]. […] Levels of VEGF were determined using an antibody raised against VEGF-165 (Santa Cruz Biotechnology) [26]. Experiments were performed in triplicate to ensure reproducibility. Data are presented as arbitrary densitometry units (ADU) after normalization for the total corresponding protein or actin as internal control [24].

[7] = test system: WKY rats; test: Wound healing assay, full-thickness skin wound; assay type: in vivo, rat
Procedure: (§4) Wound healing assay was performed on 14-week-old (weight 293 ± 21 g) normotensive WKY male rats (Charles River Laboratories, Calco (LC), Italy; n = 18), and Matrigel plugs experiments were carried out on 16-week-old (weight 33 ± 4 g) c57BL/6 mice (Charles River Laboratories, Milan, Italy; n = 13). All animal procedures were performed in accordance with the Guide for the Care and Use of Laboratory Animals published by the National Institutes of Health in the United States (NIH Publication No. 85- 23, revised 1996) and approved by the Ethics Committee for the Use of Animals in Research of "Federico II" University.
The rats (n = 18) were anesthetized using vaporized isoflurane (4%, Abbott) and maintained by mask ventilation (isoflurane 1.8%)[29]. The dorsum was shaved by applying a depilatory creme (Veet, Reckitt-Benckiser, Milano, Italy) and disinfected with povidone iodine scrub. […] Two operators blinded to the identity of the sample examined and measured wound areas every day, for 8 days. Direct measurements of wound region were determined by digital planimetry (pixel area), and subsequent analysis was performed using a computer-assisted image analyzer (ImageJ software, version 1.41, National Institutes of Health, Bethesda, MD, USA). Wound healing was quantified as a percentage of the original injury size. […]

[8] = test system: c57BL/6 mice; test: Matrigel plugs, EC infiltration by lectin staining; assay type: in vivo, mouse; conditions: s.c. Matrigel with VEGF and 10^-5M peptide, seven days, mean ± SEM
Procedure: as §4
Mice (n = 13), anesthetized as described above, were subcutaneously injected midway on the dorsal side, using sterile conditions, with 0.2 ml of Matrigel® basement matrix, pre-mixed with 10^-6M VEGF and 10^-5M c(RGDf[NMe]V) (n = 4), 10^-6M VEGF and 10^-5M RGDechiHCit (n = 5), or 10^-6M VEGF alone (n = 4). After seven days, mice were euthanized and the implanted plugs were harvested from underneath the skin, fixed in 10% neutral-buffered formalin solution and then embedded in paraffin. Invading ECs were identified and quantified by analysis of lectin immunostained sections, as described.
All tissues were cut in 5 μm sections and slides were counterstained with a standard mixture of hematoxylin and eosin. […]

[9] = human serum (Lonza, Basel, Switzerland); conditions: 37°C, up to 24h

Row | Compound | hFN-induced phosphorylation of ERK2 in EC [1] | tube formation on Matrigel [2] | EC proliferation ([3]; hFN 100 μg/ml stimulation, peptides 10^-6 M pre-incubated 30' at 37°C, after 6 hours, mean ± SEM) | EC proliferation, peptide given alone ([3]; without hFN) | hFN-induced phosphorylation of ERK2 in VSMC [4] | VSMC proliferation ([5]; hFN 100 μg/ml stimulation, peptides 10^-6 M, mean ± SEM, NS) | VSMC proliferative response to hFN at 20h ([5]; hFN stimulation, 20h) | VEGF expression levels in EC [6] | wound healing (closure of full-thickness wounds) ([7]; pluronic gel 30% containing 10^-6 M peptide placed daily on 20 mm wound, 8 days) | wound histology ([7]; wounds excised 8 days after surgery) | EC infiltration of Matrigel plugs [8] | not cleaved [9]
1 | CC(C)[C@H]1C(=O)N[C@@H](CCCNC(=N)N)C(=O)NCC(=O)N[C@@H](CC(=O)O)C(=O)N[C@H](Cc2ccccc2)C(=O)N1C [c(RGDf[NMe]V)] | significantly inhibited | 14.11 ± 3.9 branches per 10000 μm^2 | +0.6 ± 0.38 fold over basal | did not affect EC proliferation | decreased such activation | +0.9 ± 0.09 fold over basal | induced an attenuation of such proliferative response | +3.19 ± 0.73 fold over basal, ADU | slowed down healing | exhibited a retarded repair pattern | 0.185 ± 0.027 fold over VEGF alone | –
2 | c(RGDf[NMe]V) | – | – | – | – | – | – | – | – | – | – | – | After 24h of incubation chromatogram and mass profiles failed to identify any degradation product
